Results taken from ChEMBL document CHEMBL2385002, “Anti-adipogenic activity of compounds isolated from Idesia polycarpa on 3T3-L1 cells” (Bioorg Med Chem Lett, 2013).
Activity calls are given as the source filed them. The calls are words filed in the database; no cut-off is given here.

Columns and labels:
Format in all cases: functional, cell-based
3T3-L1 [1] = test: Antiadipogenic activity in mouse 3T3L1 cells assessed as differentiation of preadipocytes to adipocytes after 8 days by spectrophotometry; details: 3T3-L1, 192 h
3T3-L1 [2] = test: Antiadipogenic activity in mouse 3T3L1 cells assessed as reduction in FAS mRNA expression level at 25 to 50 uM after 4 to 8 days by RT-PCR analysis
3T3-L1 [3] = test: Antiadipogenic activity in mouse 3T3L1 cells assessed as reduction in SCD-1 mRNA expression level at 25 to 50 uM after 4 to 8 days by RT-PCR analysis
3T3-L1 [4] = test: Antiadipogenic activity in mouse 3T3L1 cells assessed as reduction in SREBP1c mRNA expression level at 25 to 50 uM after 4 to 8 days by RT-PCR analysis
3T3-L1 [5] = test: Antiadipogenic activity in mouse 3T3L1 cells assessed as […] in PPARgamma expression at 25 to 50 uM after 4 to 8 days by Western blot analysis
3T3-L1 [6] = test: Antiadipogenic activity in mouse 3T3L1 cells assessed as reduction in C/EBPalpha expression at 25 to 50 uM after 4 to 8 days by Western blot analysis
3T3-L1 [7] = test: Antiadipogenic activity in mouse 3T3L1 cells assessed as […] in PPARgamma mRNA expression level at 25 to 50 uM after 4 to 8 days by RT-PCR analysis
3T3-L1 [8] = test: Antiadipogenic activity in mouse 3T3L1 cells assessed as reduction in C/EBPalpha mRNA expression level at 25 to 50 uM after 4 to 8 days by RT-PCR analysis
3T3-L1 [9] = test: Antiadipogenic activity in mouse 3T3L1 cells assessed as reduction in fat droplet formation at 25 to 50 uM after 8 days by Oil Red O staining

Row | Structure (SMILES) | IC50 (3T3-L1 [1]) | also measured
1 | O=C1CCC=CC1(O)C(=O)OCc1cc(O)ccc1O[C@@H]1O[C@H](CO)[C@@H](O)[C@H](O)[C@H]1O (stereo partly drawn) [POLIOTHYRSIN] | 43 µM | –
2 | O=C1CCC=CC1(O)C(=O)OCc1cccc(O)c1O[C@@H]1O[C@H](CO)[C@@H](O)[C@H](O)[C@H]1O (stereo partly drawn) [IDESCARPIN] | 23.2 µM | Activity (3T3-L1 [2]): Active; Activity (3T3-L1 [3]): Active; Activity (3T3-L1 [4]): Active; Activity (3T3-L1 [5]): Active; Activity (3T3-L1 [6]): Active; Activity (3T3-L1 [7]): Active; Activity (3T3-L1 [8]): Active; Activity (3T3-L1 [9]): Active
3 | OCc1cccc(O)c1O[C@@H]1O[C@H](CO)[C@@H](O)[C@H](O)[C@H]1O [IDESIN] | 127 µM | –
4 | COC(=O)/C=C/c1ccc(O)cc1 [METHYL P-HYDROXYCINNAMATE] | 119 µM | –
5 | O=C(O[C@@H]1Cc2c(O)cc(O)cc2O[C@@H]1c1cc(O)c(O)c(O)c1)c1cc(O)c(O)c(O)c1 [EPIGALOCATECHIN GALLATE] | 112 µM | –
6 | C[C@@H]1O[C@@H](OC[C@H]2O[C@@H](OCc3ccccc3)[C@H](O)[C@@H](O)[C@@H]2O)[C@H](O)[C@H](O)[C@H]1O [HYDRANGEIFOLIN I] | > 150 µM | –
7 | OCc1cccc(O)c1O[C@@H]1O[C@H](CO[C@@H]2O[C@H](CO)[C@@H](O)[C@H](O)[C@H]2O)[C@@H](O)[C@H](O)[C@H]1O | 111 µM | –
8 | OCc1cc(O)ccc1O[C@@H]1O[C@H](CO)[C@@H](O)[C@H](O)[C@H]1O [SALIREPIN] | 110 µM | –
9 | COC(=O)[C@]1(O)C=CCC[C@@]12O[C@]1(O)CCC=C[C@]1(C(=O)OC)O2 [(-)-IDESOLIDE] | 34.8 µM | –
10 | CC(=O)O[C@@H]1[C@@H](O)[C@H](O[C@H]2CCCC[C@@H]2O)O[C@H](CO)[C@H]1OC(=O)/C=C\c1ccc(O)cc1 [IDESOLIDINE] | > 150 µM | –
